Tests used:
[1] = tested on: Puccinia recondita; assay: Use Example 1: curative activity against brown rust of wheat; assay type: in vivo; details: curative spray 1 day after inoculation, wheat cultivar Kanzler, assessed after 7 days, untreated 90%
Procedure: (§1) The active compounds, separately or jointly, were prepared as a stock solution comprising 25 mg of active compound which was made up to 10 ml using a mixture of acetone and/or DMSO and the emulsifier Uniperol® EL (welting agent having an emulsifying and dispersing action based on ethoxylated alkylphenols) in a ratio by volume of solvent/emulsifier of 99:1. The mixture was then made up to 100 ml with water. This stock solution was diluted with the solvent/emulsifier/water mixture described to give the concentration of active compound stated below. Alternatively, the active compounds were employed as a commercial finished formulation and diluted with water to the stated concentration of active compound.
(§2) Curative Activity Against Brown Rust of Wheat Caused by Puccinia recondita
Leaves of polted wheat seedlings of the cultivar “Kanzler” were inoculated with a spore suspension of brown rust (Puccinia recondita). The pots were then placed into a chamber with high atmospheric humidity (90-95%) at 20-22° C. for 24 hours. During this time, the spores germinated and the germ tubes penetrated into the leaf tissue. The next day, the infected plants were sprayed to runoff point with an aqueous suspension having the concentration of active compound stated below. The suspension or emulsion was prepared as described above. After the spray coating had dried on, the test plants were cultivated in a greenhouse at temperatures between 20 and 22° C. and at 65 to 70% relative atmospheric humidity for 7 days. The extent of the rust fungus development on the leaves was then determined.

[2] = tested on: Botrytis cinerea; assay: Use Example 2a: activity against gray mold on bell pepper leaves, protective application; assay type: in vivo; details: protective spray 1 day before inoculation, bell pepper seedlings, assessed after 5 days, untreated 90%
Procedure: as §1
Activity against gray mold on bell pepper leaves caused by Botrytis cinerea, protective application Bell pepper seedlings of the cultivar “Neusiedler Ideal Elite” were, after 2-3 leaves were well developed, sprayed to runoff point with an aqueous suspension having the concentration of active compound stated below. The next day, the treated plants were inoculated with a spore suspension of Botrytis cinerea which comprised 1.7×10^6 spores/ml in a 2% strength aqueous biomalt solution. The test plants were then placed into a dark climatized chamber at 22-24° C. and high atmospheric humidity. After 5 days, the extent of the fungal infection on the leaves could be determined visually in %.

[3] = tested on: Puccinia recondita; assay: Comparative Test 1: curative activity against brown rust of wheat; assay type: in vivo; details: curative spray 1 day after inoculation, wheat cultivar Kanzler, assessed after 7 days, comparison with Comp. 35 of EP-A 0 589301, untreated 90%
Procedure: as §1, §2
Comp. 35 of EP-A 0 589301 was compared to the compounds 67.1-67.14 according to the invention of table 67. Leaves of potted wheat seedlings of the cultivar “Kanzler” were inoculated with a spore suspension of brown rust (Puccinia recondita). The pots were then placed into a chamber with high atmospheric humidity (90-95%) at 20-22° C. for 24 hours. During this time, the spores germinated and the germ tubes penetrated into the leaf tissue. The next day, the infected plants were sprayed to runoff point with an aqueous suspension having the concentration of active compound stated below. The suspension or emulsion was prepared as described above. After the spray coating had dried on, the test plants were cultivated in a greenhouse at temperatures between 20 and 22° C. and at 65 to 70% relative atmospheric humidity for 7 days. The extent of the rust fungus development on the leaves was then determined.

[4] = tested on: Leptosphaeria nodorum; assay: Comparative Test 2: activity against leaf blotch on wheat; assay type: in vivo; details: protective spray 1 day before inoculation, wheat cultivar Kanzler, assessed after 8 days, untreated 80%
Procedure: as §1
Activity Against Leaf Blotch on Wheat Caused by Leptosphaeria nodorum
Comp. 35 of EP-A 0 589301 was compared to the compounds 67.1-67.14 according to the invention of table 67. Pots of wheat plants of the cultivar “Kanzler” was sprayed to runoff point with an aqueous suspension having the concentration of active compound stated below. The next day, the pots were inoculated with an aqueous spore suspension of Leptosphaeria nodorum (syn. Stagonospora nodorum, Septoria nodorum). The plants were then placed into a chamber at 20° C. and maximum atmospheric humidity. After 8 days, the leaf blotch on the untreated but infected control plants had developed to such an extent that the infection could be determined visually in %.

[5] = tested on: Pyrenophora teres; assay: Use Example 2b: activity against net blotch of barley, 1 day protective application; assay type: in vivo; details: protective spray 24 hours before inoculation, barley seedlings, assessed after 6 days, untreated 90%
Procedure: as §1
Activity Against Net Blotch of Barley Caused byPyrenophora teres, 1 day Protective Application
Leaves of potted barley seedlings were sprayed to runoff point with an aqueous suspension having the concentration of active compound stated below. 24 hours after the spray coating had dried on, the test plants were inoculated with an aqueous spore suspension of Pyrenophora [syn. Drechslera] teres, the net blotch pathogen. The test plants were then placed into a greenhouse at temperatures between 20 and 24° C. and 95 to 100% relative atmospheric humidity. After 6 days, the extent of the development of the disease was determined visually in % infection of the total leaf area.

| melting point | SMILES | Infection at PUCCRT K1 at 250 ppm (%) [1] | Infection at BOTRCI P1 at 250 ppm (%) [2] | Infection at PUCCRT K1 at 250 ppm (%) [3] | Infection at LEPTNO P1 at 250 ppm (%) [4] | Infection at PYRNTE P1 at 250 ppm (%) [5] |
| --- | --- | --- | --- | --- | --- | --- |
|  | Cn1cc(C(=O)Nc2ccccc2-c2ccc(F)c(F)c2)c(C(F)F)n1 [Compound 67.3] | 0% | 1% | 0% | 7% |  |
|  | COc1ccc(-c2ccccc2NC(=O)c2cn(C)nc2C(F)F)c(C)c1 [Compound 67.14] | 0% |  | 0% | 5% |  |
|  | Cn1cc(C(=O)Nc2ccccc2-c2cc(F)ccc2F)c(C(F)F)n1 [Compound 67.6] | 0% | 10% | 0% | 3% |  |
|  | Cc1cc(Cl)ccc1-c1ccccc1NC(=O)c1cn(C)nc1C(F)F [Compound 67.8] | 0% | 0% | 0% |  |  |
|  | Cn1cc(C(=O)Nc2ccccc2-c2ccc(Cl)c(F)c2)c(C(F)F)n1 [Compound 67.12] | 0% | 7% | 0% | 3% |  |
|  | Cc1cc(F)ccc1-c1ccccc1NC(=O)c1cn(C)nc1C(F)F [Compound 67.10] | 0% | 0% | 0% | 15% |  |
| 129 to 130 °C | Cn1cc(C(=O)Nc2ccccc2-c2ccc(Cl)c(Cl)c2)c(C(F)F)n1 [Compound 67.4, 3-difluoromethyl-1-methyl-N-(ortho-(3,4-dichlorophenyl)phenyl)-pyrazole-4-carboxamide] | 0% | 0% | 0% | 3% |  |
|  | Cn1cc(C(=O)Nc2ccccc2-c2ccc(Cl)cc2Cl)c(C(F)F)n1 [Compound 67.5] | 0% |  | 0% | 15% |  |
|  | Cc1cc(-c2ccccc2NC(=O)c2cn(C)nc2C(F)F)ccc1Cl [Compound 67.9] | 3% | 0% | 3% |  |  |
|  | Cn1cc(C(=O)Nc2ccccc2-c2ccc(F)c(Cl)c2)c(C(F)F)n1 [Compound 67.2] | 0% | 0% | 0% | 3% |  |
|  | Cc1cc(-c2ccccc2NC(=O)c2cn(C)nc2C(F)F)ccc1F [Compound 67.11] | 0% | 0% | 0% |  |  |
|  | Cn1cc(C(=O)Nc2ccccc2-c2ccccc2)c(C(F)F)n1 [reference compound] |  |  | 25% | 80% |  |
|  | Cn1cc(C(=O)Nc2ccccc2-c2ccc(Cl)cc2F)c(C(F)F)n1 [Compound 67.7] | 0% |  | 0% | 0% | 5% |
|  | Cn1cc(C(=O)Nc2ccccc2-c2cc(Cl)cc(Cl)c2)c(C(F)F)n1 [Compound 67.1] | 0% | 1% | 0% | 25% |  |
|  | Cn1cc(C(=O)Nc2ccccc2-c2ccc(F)cc2F)c(C(F)F)n1 [Compound 67.13] | 0% |  | 0% | 3% | 5% |
